This note sets out measurements from ChEMBL document CHEMBL1151189, “Antimicrobial chlorinated bibenzyls from the liverwort Riccardia marginata” (2004).

For one assay, the system named is Escherichia coli. The assay can be described thus: Antimicrobial activity against Escherichia coli. In kind it is functional, organism-based.
For the next assay, the system named is Amorphotheca resinae. The assay can be described thus: Antimicrobial activity against Cladosporium resinae at 30 ug/disk. The format is functional. The settings on record: read-out: IZ.
Assay [1] concerns Bacillus subtilis. The assay can be described thus: Antimicrobial activity against Bacillus subtilis at 30 ug/disk. The format is functional. The settings on record: read-out: IZ.
The test system of a further assay is Candida albicans. The assay can be described thus: Antimicrobial activity against Candida albicans at 30 ug/disk. To be noted: read-out: IZ. The format is functional.
The test system of assay [2] is Trichophyton mentagrophytes. The assay can be described thus: Antimicrobial activity against Trichophyton mentagrophytes at 30 ug/disk. In kind it is functional. The settings on record: read-out: IZ.
Assay [3] has as its system Bacillus subtilis. The assay can be described thus: Antimicrobial activity against Bacillus subtilis at 30 ug/5 mm disk. In kind it is functional.

SMILES strings stand for the structures. Active and inactive are the calls of the source. The rule behind the calls is not given here.

On to `Oc1c(Cl)ccc(CCc2ccccc2)c1Cl`, for which, in the assay with Escherichia coli, the result was inactive. In addition, the zone of inhibition at 30 µg/disc was found to be 2 mm in the assay with Amorphotheca resinae, 2 mm in the assay with Bacillus subtilis [1], 2 mm in the assay with Candida albicans and 12 mm in assay [2].
For the molecule `Oc1c(Cl)cc(Cl)c(CCc2ccccc2)c1Cl`, the “inhibition zone (IZ)” value with Bacillus subtilis [3] was determined as 2 mm. In addition, in the assay on Escherichia coli, the outcome was inactive. Further, the zone of inhibition at 30 µg/disc in the assay on Amorphotheca resinae was 1 mm; in the assay with Candida albicans, 2 mm; in assay [2], 7 mm.
For the molecule `Oc1cccc(CCc2ccccc2)c1Cl`, the outcome with Escherichia coli was inactive. Also, the zone of inhibition at 30 µg/disc in the assay on Amorphotheca resinae was 0 mm; in the assay with Bacillus subtilis [1] it was 2 mm; in the assay with Candida albicans, 2 mm; in assay [2], 3 mm.
